Data set [1] is described as follows: Pharmacokinetic study, brain distribution test (TM in brain and whole blood). It is filed as in vivo, SD rats. Conditions: single gavage to rats, trapezoidal method, calculated after deducting the concentration at time zero. How it is done: The SD rats used in this test were purchased from Zhejiang Charles rive Laboratory Animal Co., Ltd. Both male and female rats of SPF grade weighting about 250 g were used.
Preparation of the test article: a proper amount of test article was weighed and ground as fine powder in a mortar. A certain amount of the vehicle was added to a proper container, and then the ground test article was added to the container under magnetic stirring. The mixture was stirred until the appearance is uniform.
The male SD rats were divided into three groups (16 rats in each group) (4 animals were sacrificed at 4 time points). […] The animals were sacrificed at 5 min, 1 h, 3 h, and 9 h after the administration. The brain was taken out immediately after sacrifice, rinsed with ice-cold water and rinsed. 50 mg of the brain tissue was weighed, added to 0.45 mL of 100 mM dipotassium hydrogen phosphate buffer (pH=5.0) and homogenized. Blood samples were taken simultaneously and anticoagulated with EDTA. After collection, blood samples were placed on ice. 150 μL of whole blood was taken and 150 μL of 5.2% perchloric acid was added to determine TM. Another 4 animals were gavage administered with normal saline for the determination of endogenous TM concentration. All samples were frozen and stored in a −80° C. refrigerator.
The concentrations of TM and TDP in the samples were determined by HPLC-FLD.
The non-compartment model of the DAS software was used to calculate the pharmacokinetic parameters of TM and TDP in blood of rats after administration. The concentration of TM in the brain tissue after the drug administration in rats was measured, and the mean value and standard deviation were calculated. The area under the drug-time curve AUC was calculated using the trapezoidal method.

Data set [2] deals with APP/PSi 2×Tg mice. The data set can be described thus: Water maze behavior test. It is filed as in vivo. To be noted: 200 mg/kg oral gavage once a day, 8 weeks; for The number of crossing the platform: test day 6, model group 0.9 ± 0.6; for Time in the target quadrant: test day 6, model group 12.8 ± 2.9, in s. An excerpt:
Rodents in water have a strong incentive to escape from the water environment, and can escape from the water environment in the fastest and most direct way. The process of learning to escape from the water environment reflects the learning ability of the animals. Spatial positioning according to the surrounding environment and purposefully swimming to a safe place in the water (such as a platform) can reflect the spatial learning and memory ability of the animals.
The test animals were APP/PSi 2×Tg mice (C57BL/6 wild-type mice as the blank control). Mice of 6-8 months old, weighing 20-40 g, were purchased from The Jackson laboratory.
APP/PSi mice are APP/PSi di-transgenic Alzheimer's disease (2×Tg-AD) model mice, and the appearance of deposition of Aβ is earlier than the pathological changes of tau protein for several months, which can more truly simulate the clinical process and pathological changes of Alzheimer's disease.
Preparation of 0.7% CMC-Na: 0.7 g CMC-Na was added with a proper amount of water, heated for dissolution, left for cooling to room temperature, diluted to 100 mL, and stored at 4° C.
Preparation of BTMP: 100 mg of BTMP was added to 10 mL of 0.7% CMC-Na to prepare a 10 mg/mL suspension for use.
Preparation of test compound and comparative compound 1: 100 mg of the compound to be tested was weighted and added to 10 mL of 0.7% CMC-Na to prepare a 10 mg/mL suspension for use.
The laboratory mice were randomly divided into groups (9 or 10 mice per group). Mice in each group were administrated at a dosage of 0.2 mL/10 g body weight by oral gavage once a day for eight weeks.
The mice in the blank control group, model group and test group were orally administrated for 8 consecutive weeks according to the above administration dosage/specification. The water maze training and test were started in the last week of administration. The water maze training and test lasted for six days, with a training period of five days and a testing period of one day. In addition, during the training and testing period of water maze (6 days in total), the indoor conditions such as lighting etc. were kept consistent, the room was kept quiet, and the interference from the environment and personnel was excluded.
2.1. Preparation before the test: a proper amount of water was put into the water maze pool with the water temperature being kept at 22±3° C. The platform was placed in a fixed position (target quadrant) and 1 cm below the water surface, and titanium dioxide was added until the water became white, so that the platform could not be seen clearly.
2.2. Training period (days 1 to 5): on each day, before the first quadrant training, each mouse was placed on the platform for 15 s (to increase the mice's sense of security on the platform), and then the mouse was put into the pool (with its head facing the pool wall) from the quadrant where the platform located, and the swimming time was set as 60 s. If the mouse found the platform within 60 s and stayed for 5 s, it was regarded as the platform being found successfully. If the mouse could not find the platform, then the time was recorded as 60 s. The mouse was guided to the platform and stayed for 20 s, the mouse was then taken out, and the quadrant training for this mouse was ended.
After the first quadrant training, the mouse was trained in the remaining three quadrants sequentially, where it is not necessary to place the mouse on the platform for 15 s before training. The training of each mouse in every two quadrants was conducted at an interval of 10-15 minute. In this way, the training was performed continuously for 5 days.
2.3. Testing period (day 6): 24 hours after the last training, the platform was removed, and the mouse was dropped at the position opposite to the quadrant where the platform previously located (i.e., the position furthest away from the platform). […]

For data set [3], the system named is Aβ40. Nature of the data set: Aβ40 content in culture supernatant of HEK293APP/sw overexpressing cells (ELISA kit). It is filed as cell-based. Conditions: compound 400 μM, 24 hours, adjusted by total protein concentration, blank control 127.81. The protocol: (§1) BCA Protein Assay Kit was purchased from Beyotime, Aβ40 and Aβ42 detection kits were purchased from Wako, and cell culture related reagents were purchased from Gibco.
(§2) HEK293APP/sw overexpressing cells were cultured in DMEM medium containing 10% FBS, 100 μg/mL G418 (Geneticin) and 1×Penicillin-Streptomycin in 48-well plates. A 4 mM compound stock solution (prepared by dissolving the compound in DMEM culture medium) was filtered through a 0.22 μm sterile filter and stored at −20° C. for subsequent use. At 70% cell density, 40 μL of the compound test solution was added to each well to reach a final concentration of 400 μM, and the plate was incubated for 24 hours.
(§3) The supernatant of the culture medium was collected. The BCA reagent was added to a part of the supernatant, after incubating at room temperature for 30 min, the absorbance value (i.e., OD value) of each well was determined by a microplate reader at 570 nm. The total protein concentration was calculated according to a protein standard curve. Meanwhile, the other part of the supernatant (100 μL) was added to a coated 96-well plate and incubated overnight at 4° C., after the solution was removed and the reagents were washed, HRP (horseradish peroxidase)-labeled antibody was added and incubated at 4° C. for 2 hours. After the reagents were removed and washed, a TMB chromogenic solution was added, the plate was incubated at room temperature for 30 min, and then a stop solution was added to stop the reaction. The absorbance value (i.e., OD value) of each well was measured by a microplate reader at 450 nm. The concentrations of Aβ40 and Aβ42 were calculated according to the standard curves of Aβ40 and Aβ42, respectively. In the end, the concentrations of Aβ40 and Aβ42 were adjusted by the total protein concentration, so as to obtain the final concentration.
On the technique in general: ELISA stands for enzyme-linked immunosorbent assay.

For data set [4], the system named is Aβ42. Nature of the data set: Aβ42 content in culture supernatant of HEK293APP/sw overexpressing cells (ELISA kit). It is filed as cell-based. Conditions: compound 400 μM, 24 hours, adjusted by total protein concentration, blank control 11.08. The protocol:
as §1, §2, §3

Where [5] appears, read: test day 6, model group 45.0 ± 8.8, 200 mg/kg.

SMILES strings stand for the structures.

As for `C/C(=C(\CCOP(=O)(O)O)SC(=O)c1ccccc1)N(C=O)Cc1cnc(C)nc1N` [BTMP, benfotiamine, reference compound], the “AUC of TM in the brain” value in data set [1] was 739.9 ng·h/g. For the same compound, in data set [2], the “The number of crossing the platform” value was 2.1 ± 0.6 and the “Time in the target quadrant” value is on record as 18.0 ± 3.5. The compound also yielded a Latency period in data set [2] (setting [5]) of 27.3 ± 1.6 s.

As to `C/C(=C(\CCOP(=O)(O)O)SC(=O)C(C)C)N(C=O)Cc1cnc(C)nc1N` [Comparative compound 1, reference compound], in data set [2], the “The number of crossing the platform” value turned out to be 2.1 ± 0.6 and the “Time in the target quadrant” value is recorded as 18.1 ± 2.8. The compound further registered a Latency period in data set [2] (setting [5]) of 27.0 ± 1.3 s.

Regarding `CCCCC(CC)C(=O)S/C(CCOP(=O)(O)O)=C(/C)N(C=O)Cc1cnc(C)nc1N` (stereo not drawn) [Comparative compound 2, reference compound], the “AUC of TM in the brain” value in data set [1] was 555.9 ng·h/g.

Regarding `C/C(=C(\CCOP(=O)(O)O)SC(=O)OCCc1ccccc1)N(C=O)Cc1cnc(C)nc1N` [Compound 5, (Z)—S-(2-(N-((4-amino-2-methylpyrimidin-5-yl)methyl)formamido)-5-(phosphonooxy)pent-2-en-3-yl) O-phenethyl carbonothioate], the “The content of Aβ40” value in data set [3] came to 48.94 pmol/L. In data set [2], the “The number of crossing the platform” value is 2.2 ± 0.7 and the “Time in the target quadrant” value amounted to 17.7 ± 2.6. In data set [2] (test day 6, model group 45.0 ± 8.8), this compound showed a Latency period of 25.0 ± 2.2 s. For the same compound, in data set [4], the “The content of Aβ42” value amounted to 4.92 pmol/L.

Consider `C/C(=C(\CCOP(=O)(O)O)SC(=O)c1ccc(Cl)s1)N(C=O)Cc1cnc(C)nc1N` [Compound 7, (Z)—S-(2-(N-((4-amino-2-methylpyrimidin-5-yl)methyl)formamido)-5-(phosphonooxy)pent-2-en-3-yl) 5-chlorothiophene-2-carbothioate], for which the “The content of Aβ40” value in data set [3] was 35.93 pmol/L. Further, the “The content of Aβ42” value in data set [4] came to 5.03 pmol/L.

Turning to `COc1ccc2oc(C(=O)S/C(CCOP(=O)(O)O)=C(/C)N(C=O)Cc3cnc(C)nc3N)cc2c1` [Compound 8, (Z)—S-(2-(N-((4-amino-2-methylpyrimidin-5-yl)methyl)formamido)-5-(phosphonooxy)pent-2-en-3-yl) 5-methoxybenzofuran-2-carbothioate], the “The content of Aβ40” value in data set [3] is recorded as 60.96 pmol/L. Moreover, the “The content of Aβ42” value in data set [4] was 2.31 pmol/L.

Consider `C/C(=C(\CCOP(=O)(O)O)SC(=O)c1cc2ccccc2o1)N(C=O)Cc1cnc(C)nc1N` [Compound 13, (Z)—S-(2-(N-((4-amino-2-methylpyrimidin-5-yl)methyl)formamido)-5-(phosphonooxy)pent-2-en-3-yl) benzofuran-2-carbothioate], for which, in data set [3], the “The content of Aβ40” value came out at 43.76 pmol/L. Further, the “The content of Aβ42” value in data set [4] is reported as 7.21 pmol/L.

For the compound `C/C(=C(\CCOP(=O)(O)O)SC(=O)c1ccoc1)N(C=O)Cc1cnc(C)nc1N` [Compound 15, (Z)—S-(2-(N-((4-amino-2-methylpyrimidin-5-yl)methyl)formamido)-5-(phosphonooxy)pent-2-en-3-yl) furan-3-carbothioate], the “The content of Aβ40” value in data set [3] amounted to 37.88 pmol/L. Further, the “The content of Aβ42” value in data set [4] is on record as 10.52 pmol/L.

Source of the values: patent US20240270771A1, “Compound containing phosphate group, pharmaceutical composition containing same, preparation method therefor and use thereof” (SHANGHAI RAISING PHARMACEUTICAL CO., LTD., priority 2021, published 2024).
